Experimental data from article PMC10879502, “Linking ATP and allosteric sites to achieve superadditive binding with bivalent EGFR kinase inhibitors” (Communications Chemistry, 2024).

Assays:
Experiment in all cases: KINOMEscan
Assay type in all cases: binding
Details in all cases: 1 μM
IKK-beta = molecular target: T1, IKK-beta (Homo sapiens, UniProt O14920)
T1 construct: purchased Eurofins DiscoverX (KINOMEscan)

[1] = molecular target: RSK4(Kin.Dom.2-C-terminal) (Homo sapiens, UniProt Q9UK32)
FYN = molecular target: T2, FYN (Homo sapiens, UniProt P06241)
T2 construct: purchased Eurofins DiscoverX Corporation

HUNK = molecular target: T3, HUNK (Homo sapiens, UniProt P57058)
T3 construct: purchased Eurofins DiscoverX (KINOMEscan)

GCN2(Kin.Dom.2+S808G) = molecular target: T4, GCN2(Kin.Dom.2+S808G) (Homo sapiens, UniProt Q9P2K8, S808G)
T4 construct: GCN2(Kin.Dom.2+S808G); purchased Eurofins DiscoverX Corporation

DLK = molecular target: T5, DLK (Homo sapiens, UniProt Q12852)
T5 construct: purchased Eurofins DiscoverX Corporation

CSNK1G1 = molecular target: T6, CSNK1G1 (Homo sapiens, UniProt Q9HCP0)
T6 construct: purchased Eurofins DiscoverX Corporation

[2] = molecular target: T7, ABL1(Y253F)-phosphorylated (Homo sapiens, UniProt P00519, Y253F)
T7 construct: purchased Eurofins DiscoverX Corporation

GRK7 = molecular target: T8, GRK7 (Homo sapiens, UniProt Q8WTQ7)
T8 construct: purchased Eurofins DiscoverX Corporation

NIK = NIK (Homo sapiens, UniProt Q99558)
IGF1R = molecular target: T9, IGF1R (Homo sapiens, UniProt P08069)
T9 construct: purchased Eurofins DiscoverX (KINOMEscan)

BRSK2 = molecular target: T10, BRSK2 (Homo sapiens, UniProt Q8IWQ3)
T10 construct: purchased Eurofins DiscoverX Corporation (KINOMEscan)

PRKCH = PRKCH (Homo sapiens, UniProt P24723)
NDR2 = molecular target: T11, NDR2 (Homo sapiens, UniProt Q9Y2H1)
T11 construct: purchased Eurofins DiscoverX Corporation

PRKD3 = PRKD3 (Homo sapiens, UniProt O94806)
VRK2 = VRK2 (Homo sapiens, UniProt Q86Y07)
ULK3 = ULK3 (Homo sapiens, UniProt Q6PHR2)
ITK = molecular target: T12, ITK (Homo sapiens, UniProt Q08881)
T12 construct: purchased Eurofins DiscoverX (KINOMEscan)

CSF1R-autoinhibited = CSF1R-autoinhibited (Homo sapiens, UniProt P07333)
EPHA3 = EPHA3 (Homo sapiens, UniProt P29320)
TSSK1B = molecular target: T13, TSSK1B (Homo sapiens, UniProt Q9BXA7)
T13 construct: purchased Eurofins DiscoverX Corporation

TAOK3 = molecular target: T14, TAOK3 (Homo sapiens, UniProt Q9H2K8)
T14 construct: purchased Eurofins DiscoverX Corporation

ASK2 = ASK2 (Homo sapiens, UniProt O95382)
PIK3CA(I800L) = PIK3CA(I800L) (Homo sapiens, UniProt P42336, I800L)
MARK4 = molecular target: T15, MARK4 (Homo sapiens, UniProt Q96L34)
T15 construct: purchased Eurofins DiscoverX Corporation

FES = FES (Homo sapiens, UniProt P07332)
PIK3CG = PIK3CG (Homo sapiens, UniProt P48736)
FLT3(R834Q) = molecular target: T16, FLT3(R834Q) (Homo sapiens, UniProt P36888, R834Q)
T16 construct: purchased Eurofins DiscoverX Corporation

PIK3CA = PIK3CA (Homo sapiens, UniProt P42336)
CASK = molecular target: T17, CASK (Homo sapiens, UniProt O14936)
T17 construct: purchased Eurofins DiscoverX Corporation (KINOMEscan)

MAP4K3 = molecular target: T18, MAP4K3 (Homo sapiens, UniProt Q8IVH8)
T18 construct: purchased Eurofins DiscoverX Corporation

PRKCI = PRKCI (Homo sapiens, UniProt P41743)
CDC2L1 = molecular target: T19, CDC2L1 (Homo sapiens, UniProt P21127)
T19 construct: purchased Eurofins DiscoverX Corporation (KINOMEscan)

PIP5K2B = PIP5K2B (Homo sapiens, UniProt P78356)
ERBB4 = ERBB4 (Homo sapiens, UniProt Q15303)
[3] = molecular target: RSK3(Kin.Dom.2-C-terminal) (Homo sapiens, UniProt Q15349)
SGK = SGK (Homo sapiens, UniProt O00141)
NDR1 = molecular target: T20, NDR1 (Homo sapiens, UniProt Q15208)
T20 construct: purchased Eurofins DiscoverX Corporation

PKNB(M.tuberculosis) = PKNB(M.tuberculosis) (Mycobacterium tuberculosis, UniProt P9WI81)
CAMK1 = molecular target: T21, CAMK1 (Homo sapiens, UniProt Q14012)
T21 construct: purchased Eurofins DiscoverX Corporation (KINOMEscan)

DYRK1A = molecular target: T22, DYRK1A (Homo sapiens, UniProt Q13627)
T22 construct: purchased Eurofins DiscoverX Corporation

SgK110 = SgK110 (Homo sapiens, UniProt P0C264)

T18 sequence (Q8IVH8 whole entry): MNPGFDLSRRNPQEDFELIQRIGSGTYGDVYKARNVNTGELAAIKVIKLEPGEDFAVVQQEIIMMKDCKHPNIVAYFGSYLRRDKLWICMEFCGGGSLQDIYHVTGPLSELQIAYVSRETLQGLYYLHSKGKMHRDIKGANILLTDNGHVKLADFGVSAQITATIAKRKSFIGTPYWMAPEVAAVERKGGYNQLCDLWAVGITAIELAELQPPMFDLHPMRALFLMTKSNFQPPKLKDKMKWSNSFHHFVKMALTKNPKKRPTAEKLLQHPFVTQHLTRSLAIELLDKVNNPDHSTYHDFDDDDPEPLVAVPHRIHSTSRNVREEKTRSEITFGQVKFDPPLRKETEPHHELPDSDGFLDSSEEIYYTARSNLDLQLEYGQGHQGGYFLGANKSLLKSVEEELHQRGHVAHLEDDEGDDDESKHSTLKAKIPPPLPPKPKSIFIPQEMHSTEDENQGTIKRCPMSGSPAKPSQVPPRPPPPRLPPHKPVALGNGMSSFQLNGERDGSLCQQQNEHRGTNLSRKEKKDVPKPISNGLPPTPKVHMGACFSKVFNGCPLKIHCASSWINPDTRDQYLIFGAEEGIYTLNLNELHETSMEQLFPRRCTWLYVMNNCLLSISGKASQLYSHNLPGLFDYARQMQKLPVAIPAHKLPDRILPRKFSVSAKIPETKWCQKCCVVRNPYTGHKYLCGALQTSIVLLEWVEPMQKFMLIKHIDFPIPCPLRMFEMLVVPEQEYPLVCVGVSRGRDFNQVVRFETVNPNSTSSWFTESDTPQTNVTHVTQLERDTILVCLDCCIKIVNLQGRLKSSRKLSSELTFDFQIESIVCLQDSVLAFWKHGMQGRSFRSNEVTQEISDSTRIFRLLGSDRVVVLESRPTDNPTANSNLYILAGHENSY
T21 sequence (Q14012 whole entry): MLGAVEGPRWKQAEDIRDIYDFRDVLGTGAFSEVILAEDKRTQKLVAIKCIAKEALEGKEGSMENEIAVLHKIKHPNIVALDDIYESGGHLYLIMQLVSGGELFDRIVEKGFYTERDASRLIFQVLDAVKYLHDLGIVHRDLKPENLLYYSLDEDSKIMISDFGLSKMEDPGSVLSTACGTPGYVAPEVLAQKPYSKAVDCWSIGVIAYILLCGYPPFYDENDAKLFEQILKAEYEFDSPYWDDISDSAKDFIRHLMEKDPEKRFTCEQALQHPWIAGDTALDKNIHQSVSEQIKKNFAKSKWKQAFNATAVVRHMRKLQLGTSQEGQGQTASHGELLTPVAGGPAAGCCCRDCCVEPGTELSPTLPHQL
T14 sequence (Q9H2K8 whole entry): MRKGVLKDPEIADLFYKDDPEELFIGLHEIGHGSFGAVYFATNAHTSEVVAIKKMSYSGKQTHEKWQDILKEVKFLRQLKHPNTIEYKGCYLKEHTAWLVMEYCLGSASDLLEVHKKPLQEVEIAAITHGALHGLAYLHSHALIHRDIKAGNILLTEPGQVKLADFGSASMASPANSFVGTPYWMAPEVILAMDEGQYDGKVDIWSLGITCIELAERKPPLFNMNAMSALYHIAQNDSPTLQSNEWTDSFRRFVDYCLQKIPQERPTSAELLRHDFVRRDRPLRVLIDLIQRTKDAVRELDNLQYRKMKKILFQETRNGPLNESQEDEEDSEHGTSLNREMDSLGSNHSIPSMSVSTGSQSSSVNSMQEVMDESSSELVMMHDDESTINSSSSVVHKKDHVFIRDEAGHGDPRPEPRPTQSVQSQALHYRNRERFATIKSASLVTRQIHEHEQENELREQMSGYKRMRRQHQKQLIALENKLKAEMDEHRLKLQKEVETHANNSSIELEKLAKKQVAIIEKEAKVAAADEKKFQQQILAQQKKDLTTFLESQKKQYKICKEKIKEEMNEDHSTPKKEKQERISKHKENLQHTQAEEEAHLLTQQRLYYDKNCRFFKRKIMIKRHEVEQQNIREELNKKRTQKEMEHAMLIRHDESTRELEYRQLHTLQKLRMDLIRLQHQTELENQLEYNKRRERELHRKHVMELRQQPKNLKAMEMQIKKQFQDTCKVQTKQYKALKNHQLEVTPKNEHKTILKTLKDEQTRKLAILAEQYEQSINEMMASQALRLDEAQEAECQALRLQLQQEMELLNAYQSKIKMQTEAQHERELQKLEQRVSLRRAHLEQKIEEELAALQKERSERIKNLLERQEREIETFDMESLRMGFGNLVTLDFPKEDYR
Chain of PIP5K2B (P78356 whole entry): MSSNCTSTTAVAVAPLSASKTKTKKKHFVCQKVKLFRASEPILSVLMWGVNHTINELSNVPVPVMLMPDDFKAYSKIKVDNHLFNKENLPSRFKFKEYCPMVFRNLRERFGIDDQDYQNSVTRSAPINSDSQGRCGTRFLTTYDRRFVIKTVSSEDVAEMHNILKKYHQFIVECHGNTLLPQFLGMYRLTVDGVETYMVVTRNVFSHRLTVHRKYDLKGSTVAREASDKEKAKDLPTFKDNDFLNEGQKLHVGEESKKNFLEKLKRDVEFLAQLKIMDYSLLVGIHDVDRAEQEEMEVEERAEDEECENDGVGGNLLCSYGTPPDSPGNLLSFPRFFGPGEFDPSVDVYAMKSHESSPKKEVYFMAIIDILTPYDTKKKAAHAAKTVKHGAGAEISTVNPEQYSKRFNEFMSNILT
T11 sequence (Q9Y2H1 whole entry): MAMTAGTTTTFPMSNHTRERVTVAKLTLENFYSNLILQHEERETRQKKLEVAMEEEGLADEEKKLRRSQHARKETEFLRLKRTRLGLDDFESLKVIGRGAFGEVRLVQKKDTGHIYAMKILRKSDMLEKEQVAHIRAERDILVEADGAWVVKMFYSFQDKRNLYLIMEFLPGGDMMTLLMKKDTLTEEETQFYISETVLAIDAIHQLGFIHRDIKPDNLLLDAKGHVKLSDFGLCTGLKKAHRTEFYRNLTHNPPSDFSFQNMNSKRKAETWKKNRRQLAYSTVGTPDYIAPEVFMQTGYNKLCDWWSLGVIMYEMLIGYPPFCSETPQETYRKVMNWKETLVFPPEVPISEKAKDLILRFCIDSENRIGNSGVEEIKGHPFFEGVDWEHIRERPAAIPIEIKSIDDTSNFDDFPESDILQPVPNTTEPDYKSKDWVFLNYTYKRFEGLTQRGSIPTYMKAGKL
T10 sequence (Q8IWQ3 whole entry): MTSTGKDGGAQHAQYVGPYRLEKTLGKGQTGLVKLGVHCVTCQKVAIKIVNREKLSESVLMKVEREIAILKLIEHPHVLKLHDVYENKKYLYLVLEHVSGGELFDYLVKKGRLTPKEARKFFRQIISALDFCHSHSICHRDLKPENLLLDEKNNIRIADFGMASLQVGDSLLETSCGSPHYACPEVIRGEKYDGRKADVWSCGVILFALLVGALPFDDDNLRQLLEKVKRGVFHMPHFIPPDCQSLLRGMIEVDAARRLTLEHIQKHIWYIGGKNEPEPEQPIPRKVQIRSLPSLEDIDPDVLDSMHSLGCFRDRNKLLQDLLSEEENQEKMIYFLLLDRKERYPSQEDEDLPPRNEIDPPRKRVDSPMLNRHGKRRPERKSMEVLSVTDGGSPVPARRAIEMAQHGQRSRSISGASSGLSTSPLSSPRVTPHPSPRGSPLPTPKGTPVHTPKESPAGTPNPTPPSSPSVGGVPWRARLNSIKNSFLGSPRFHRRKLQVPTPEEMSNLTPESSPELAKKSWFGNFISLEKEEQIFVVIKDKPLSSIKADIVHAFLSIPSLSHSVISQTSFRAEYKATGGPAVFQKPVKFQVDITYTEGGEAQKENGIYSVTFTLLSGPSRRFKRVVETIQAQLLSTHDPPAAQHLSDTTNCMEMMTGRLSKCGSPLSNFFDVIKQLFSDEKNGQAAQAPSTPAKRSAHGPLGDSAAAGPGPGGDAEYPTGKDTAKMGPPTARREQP
Chain of ASK2 (O95382 whole entry): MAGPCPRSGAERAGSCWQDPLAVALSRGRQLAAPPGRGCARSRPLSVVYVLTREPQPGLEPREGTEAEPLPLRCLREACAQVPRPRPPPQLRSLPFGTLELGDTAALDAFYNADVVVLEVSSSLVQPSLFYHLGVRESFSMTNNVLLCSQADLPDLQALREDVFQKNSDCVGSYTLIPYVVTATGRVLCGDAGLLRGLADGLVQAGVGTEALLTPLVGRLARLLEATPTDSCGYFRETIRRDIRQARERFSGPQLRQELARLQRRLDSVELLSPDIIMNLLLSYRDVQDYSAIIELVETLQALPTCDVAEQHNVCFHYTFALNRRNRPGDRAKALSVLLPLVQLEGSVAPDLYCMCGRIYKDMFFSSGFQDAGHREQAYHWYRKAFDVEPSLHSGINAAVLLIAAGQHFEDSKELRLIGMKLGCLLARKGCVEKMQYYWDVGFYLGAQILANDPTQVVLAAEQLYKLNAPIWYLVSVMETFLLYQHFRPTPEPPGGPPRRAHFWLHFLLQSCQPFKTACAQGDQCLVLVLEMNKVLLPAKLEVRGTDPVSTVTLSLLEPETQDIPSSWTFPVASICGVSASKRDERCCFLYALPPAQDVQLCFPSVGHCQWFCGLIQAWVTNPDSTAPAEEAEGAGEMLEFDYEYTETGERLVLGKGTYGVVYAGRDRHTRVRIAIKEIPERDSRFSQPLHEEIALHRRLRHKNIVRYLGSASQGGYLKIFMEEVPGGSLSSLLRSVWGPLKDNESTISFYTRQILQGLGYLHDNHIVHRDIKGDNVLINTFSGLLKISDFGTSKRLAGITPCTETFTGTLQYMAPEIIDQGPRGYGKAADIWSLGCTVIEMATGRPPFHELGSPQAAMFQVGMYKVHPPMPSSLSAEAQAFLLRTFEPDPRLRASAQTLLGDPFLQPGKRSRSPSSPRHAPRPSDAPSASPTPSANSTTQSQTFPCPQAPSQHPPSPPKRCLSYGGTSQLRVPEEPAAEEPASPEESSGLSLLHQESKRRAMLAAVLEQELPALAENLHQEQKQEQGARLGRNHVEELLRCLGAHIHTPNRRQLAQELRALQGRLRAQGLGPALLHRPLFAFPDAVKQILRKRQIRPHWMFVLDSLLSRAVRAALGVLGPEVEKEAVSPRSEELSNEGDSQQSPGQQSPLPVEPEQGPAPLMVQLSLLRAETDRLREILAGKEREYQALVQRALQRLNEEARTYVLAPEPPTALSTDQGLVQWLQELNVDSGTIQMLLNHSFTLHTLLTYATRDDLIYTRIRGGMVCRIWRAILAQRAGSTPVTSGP

C=CC(=O)Nc1ccc(OC)c(Nc2cc(-c3[nH]c(CC)nc3-c3cccc(NC(=O)c4cccc5c4NC(=O)c4ccccc4N5)c3)ccn2)c1 [Compound 4]
POC (IKK-beta): 88% of control | POC [1]: 80% of control | POC (FYN): 64% of control | POC (HUNK): 32% of control | POC (GCN2(Kin.Dom.2+S808G)): 100% of control | POC (DLK): 100% of control | POC (CSNK1G1): 93% of control | POC [2]: 72% of control | POC (GRK7): 99% of control | POC (NIK): 100% of control | POC (IGF1R): 90% of control | POC (BRSK2): 93% of control | POC (PRKCH): 69% of control | POC (NDR2): 77% of control | POC (PRKD3): 67% of control | POC (VRK2): 100% of control | POC (ULK3): 100% of control | POC (ITK): 87% of control | POC (CSF1R-autoinhibited): 69% of control | POC (EPHA3): 81% of control | POC (TSSK1B): 95% of control | POC (TAOK3): 95% of control | POC (ASK2): 100% of control | POC (PIK3CA(I800L)): 100% of control | POC (MARK4): 92% of control | POC (FES): 28% of control | POC (PIK3CG): 65% of control | POC (FLT3(R834Q)): 100% of control | POC (PIK3CA): 70% of control | POC (CASK): 97% of control | POC (MAP4K3): 9.5% of control | POC (PRKCI): 100% of control | POC (CDC2L1): 100% of control | POC (PIP5K2B): 100% of control | POC (ERBB4): 4.9% of control | POC [3]: 80% of control | POC (SGK): 86% of control | POC (NDR1): 73% of control | POC (PKNB(M.tuberculosis)): 97% of control | POC (CAMK1): 81% of control | POC (DYRK1A): 100% of control | POC (SgK110): 100% of control
